What was measured:
Test in all cases: pIC50, kinobeads binding competition
Conditions in all cases: cell material: Jurkat lysate
[1] = target: LIMK2 (UniProt P53671)
[2] = target: UniProt P49841
[3] = target: BUB1 (UniProt O43683)
[4] = target: T1, DYRK2 (UniProt Q92630)
T1 sequence (whole entry): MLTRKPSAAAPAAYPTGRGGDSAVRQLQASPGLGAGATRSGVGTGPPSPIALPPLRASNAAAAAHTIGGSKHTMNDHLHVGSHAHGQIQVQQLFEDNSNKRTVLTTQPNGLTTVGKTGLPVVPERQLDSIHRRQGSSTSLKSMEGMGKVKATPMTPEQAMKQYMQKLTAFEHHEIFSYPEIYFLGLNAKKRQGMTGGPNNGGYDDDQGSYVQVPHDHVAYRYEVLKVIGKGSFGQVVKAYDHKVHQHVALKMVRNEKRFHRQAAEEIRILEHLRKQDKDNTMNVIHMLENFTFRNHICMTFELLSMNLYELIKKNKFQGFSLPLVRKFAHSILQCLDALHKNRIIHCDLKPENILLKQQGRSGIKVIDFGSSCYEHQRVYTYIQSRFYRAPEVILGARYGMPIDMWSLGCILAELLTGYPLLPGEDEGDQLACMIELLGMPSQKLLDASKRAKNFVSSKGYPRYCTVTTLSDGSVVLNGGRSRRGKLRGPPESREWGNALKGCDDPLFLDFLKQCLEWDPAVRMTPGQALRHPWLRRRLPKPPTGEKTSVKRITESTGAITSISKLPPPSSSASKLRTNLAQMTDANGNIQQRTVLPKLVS

[5] = target: T2, SGK3 (UniProt Q96BR1)
T2 sequence (whole entry): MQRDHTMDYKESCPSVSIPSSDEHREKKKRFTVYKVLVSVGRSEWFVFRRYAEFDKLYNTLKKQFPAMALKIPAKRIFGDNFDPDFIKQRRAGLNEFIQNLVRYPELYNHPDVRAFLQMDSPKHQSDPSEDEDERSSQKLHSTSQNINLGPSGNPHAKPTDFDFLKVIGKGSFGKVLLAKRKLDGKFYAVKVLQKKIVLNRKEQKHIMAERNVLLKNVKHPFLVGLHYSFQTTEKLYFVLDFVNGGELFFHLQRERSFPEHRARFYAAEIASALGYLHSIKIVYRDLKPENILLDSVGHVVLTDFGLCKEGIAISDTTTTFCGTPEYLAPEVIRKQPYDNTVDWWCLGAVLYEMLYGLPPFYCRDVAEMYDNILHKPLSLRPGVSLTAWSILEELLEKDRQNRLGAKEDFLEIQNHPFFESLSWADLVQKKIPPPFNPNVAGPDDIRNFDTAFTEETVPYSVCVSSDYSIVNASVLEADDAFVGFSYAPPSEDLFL

[6] = target: T3, MASTL (UniProt Q96GX5)
T3 sequence (whole entry): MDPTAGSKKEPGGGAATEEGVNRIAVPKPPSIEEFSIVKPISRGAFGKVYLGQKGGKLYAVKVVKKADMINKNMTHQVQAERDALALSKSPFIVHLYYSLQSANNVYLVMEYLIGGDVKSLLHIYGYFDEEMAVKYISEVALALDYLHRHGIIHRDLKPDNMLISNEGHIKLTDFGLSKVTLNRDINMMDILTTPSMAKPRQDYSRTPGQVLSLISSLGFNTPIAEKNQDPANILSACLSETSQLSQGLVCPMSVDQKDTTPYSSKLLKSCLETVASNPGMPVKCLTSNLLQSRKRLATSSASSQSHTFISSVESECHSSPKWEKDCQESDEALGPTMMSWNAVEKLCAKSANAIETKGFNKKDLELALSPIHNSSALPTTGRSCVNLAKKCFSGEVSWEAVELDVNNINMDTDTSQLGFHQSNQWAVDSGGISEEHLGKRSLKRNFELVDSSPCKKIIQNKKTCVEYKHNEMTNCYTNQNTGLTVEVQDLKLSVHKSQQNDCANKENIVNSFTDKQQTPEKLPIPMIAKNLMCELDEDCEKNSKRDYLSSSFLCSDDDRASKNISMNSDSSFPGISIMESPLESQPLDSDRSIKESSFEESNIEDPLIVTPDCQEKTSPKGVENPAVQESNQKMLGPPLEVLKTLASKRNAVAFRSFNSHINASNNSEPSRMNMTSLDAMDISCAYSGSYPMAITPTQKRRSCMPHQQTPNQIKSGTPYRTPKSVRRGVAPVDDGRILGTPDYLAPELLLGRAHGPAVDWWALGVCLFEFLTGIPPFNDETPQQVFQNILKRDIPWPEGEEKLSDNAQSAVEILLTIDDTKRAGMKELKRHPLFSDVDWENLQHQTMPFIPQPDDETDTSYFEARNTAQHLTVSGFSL

[7] = target: T4, UniProt P52564
T4 sequence (whole entry): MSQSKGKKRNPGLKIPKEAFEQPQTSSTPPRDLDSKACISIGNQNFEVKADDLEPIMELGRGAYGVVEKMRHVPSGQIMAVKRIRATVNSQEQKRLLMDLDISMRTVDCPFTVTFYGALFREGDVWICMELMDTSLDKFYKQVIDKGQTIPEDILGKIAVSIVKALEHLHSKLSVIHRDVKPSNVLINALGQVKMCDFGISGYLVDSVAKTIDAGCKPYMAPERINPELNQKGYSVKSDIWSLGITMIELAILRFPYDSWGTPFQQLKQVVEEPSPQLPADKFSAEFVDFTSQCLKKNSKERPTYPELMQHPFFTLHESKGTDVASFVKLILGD

[8] = target: UniProt P19784

Measured: pIC50

CCc1cnn2c(NCc3ccc[n+]([O-])c3)cc(N3CCCC[C@H]3CCO)nc12 [dinaciclib]
< 4.52: all assays above

Reference: the supplement of paper PMC12076712
